Experimental data published in patent US20080207724A1, “Use of Inhibitors of Histone Deacteylases in Combination With Compounds Acting as Nsaid for the Therapy of Human Diseases” (priority 2005, published 2008).

What was measured:
Cox-2 [1] = experiment: Cox-2 expression (Western blot / RT-PCR) in various cell types; type: cell-based, human; conditions: for Expression of Cox-2 on RNA and protein level: several systems: A-549, SK-Mel, HT-29, MDA-MB-231, THP-1, primary human lymphocytes and macrophages, FIGS. 1 and 2
Protocol: In HT-29 colon carcinoma cells Cox-2 expression was induced by treatment with 100 ng/ml TNF-α for 4 h.
Cells were seeded at densities between 5×10^4 and 1×10^5 cells per well of 24 well plates. Lysis was done by removing growth medium and adding 200 μl of Laemmli sample buffer per well. 60 μl were loaded on 8% acrylamide gels and subjected to discontinuous electrophoresis. Proteins blotted onto PVDF membranes were probed with a goat-anti-Cox-2 antibody (St. Cruz, sc1747) or a mouse anti-pan-actin antibody (Ab-5, NeoMarkers).
(§1) In detail, cells were seeded at a density of 7,5×10^4 per well in 24 well plates. Supernatants were analyzed in a dilution of 1:3 in duplicates with the prostaglandin E2 EIA Kit from Cayman according to the manufacture's instructions. Bars show the mean of two values. Cell extracts were prepared by removing growth medium completely and adding of 200 μl of Laemmli Sample buffer per well. Subsequently, 60 μl were loaded on 8% acrylamide gels and subjected to discontinuous electrophoresis.

THP-1 monocytes = experiment: Prostaglandin secretion, Celecoxib plus HDAC inhibitor, THP-1 monocytes; type: cell-based, human; conditions: in combination with Celecoxib, FIG. 4
Protocol: In parallel, Cox-2 protein levels were reduced as already described.
as §1, with “electrophoresis. Proteins blotted onto PVDF membranes which were probed with a goat anti-Cox-2 antibody (St. Cruz, scl 747) or a mouse anti-pan-actin (to analyze the expression of this control protein) antibody (Ab-5, NeoMarkers).” for “electrophoresis.”

prostaglandin E2 = experiment: Prostaglandin levels in liver extracts of APCmin mice (ex vivo cyclooxygenase activity); parameters: species or system mouse; conditions: liver taken 3 hours after final dose, same treatment as adenoma study, FIG. 5b
Protocol: (§2) Control animals were injected (i.p.) with PBS. […] At sacrifice entire intestinal tracts were opened longitudinally and fixed in 10% phosphate buffered formaldehyde for 24 hours followed by ethanol-fixation in 50% ethanol for three days. […] Cyclooxygenase activity was assessed ex vivo in hepatic tissue as described (Reuter et al., 2002; BMC Cancer 2:19). Briefly, mice were euthanized 3 hours following the final dose of vehicle or drugs and a sample of liver tissue (−100 mg) was obtained. The samples were then placed into microcentrifuge tubes containing 1 ml of sodium phosphate buffer (10 mM, pH 7.4) and finely minced with scissors for 15 seconds. Samples were then incubated for 20 min at […] in a shaking water bath. After the incubation period, samples were centrifuged at 9000×g for 30 seconds and the supernatants collected. Supernatants were flash frozen in liquid nitrogen and stored at […] for subsequent determination of prostaglandin E2 content. PGE2 concentrations were determined in duplicates after 1:20 dilution of supernatants using a commercially available competitive Enzyme Immunoassay (Cayman Chemical).

[2] = system: adenomas in C57BL/6J-APCmin/+ mice; experiment: Adenoma number in the APCmin mouse model; type: in vivo; conditions: four weeks, VPA sodium salt 2×400 mg/kg/day i.p., Celecoxib 1250 ppm in diet, combination same dosages, FIG. 5A
Protocol: as §2

TNF-α, IFN-γ and IL-6 = experiment: Semi quantitative RT-PCR of cytokine RNA in LPS-induced THP-1 cells; type: cell-based, human; conditions: THP-1 cells differentiated with TPA; 1 mM VPA or 10 μM G2M-707 over night, then 10 μg/ml LPS 6 h; FIG. 1A
Protocol: (§3) THP-1 cells were induced to differentiate by addition of 20 ng/ml TPA to the growth medium for 3d. Adherent cells were seeded at a density of 5×10^5 cells per well of a 6-well plate, and were incubated with 1 mM VPA or 10 μM G2M-707 over night (FIG. 1A). Cox-2 expression was then induced by addition of 10 μg/ml LPS for 6 h. RNA was prepared using the RNeasy Kit from Qiagen according to the manufacturer's instructions. Reverse transcription was done with 1 μg of RNA in a volume of 20 μl. 1 μl was used for each PCR reaction with specific primers for the indicated genes.

Cox-2 [3] = experiment: Semi quantitative RT-PCR of Cox-2 in peripheral blood lymphocytes of VPA-treated patients; type: in vivo, human; conditions: patients treated with 30 mg/kg/d or 120 mg/kg/d VPA; control gene GAPDH unchanged; FIG. 1B
Protocol: Semi quantitative RT-PCR was also performed with RNA isolated form peripheral blood lymphocytes of patients treated with doses 30 mg/kg/d (Patient 1) or 120 mg/kg/d VPA (Patient 2) respectively.

[4] = system: MDA-MB-231 mammary carcinoma cells; experiment: Prostaglandin secretion, Celecoxib plus HDAC inhibitor, MDA-MB-231 cells; type: cell-based, human; conditions: in combination with Celecoxib, FIG. 4
Protocol: as §1

[5] = system: collagen induced arthritis in DBA/1 mice; experiment: Therapeutic collagen induced arthritis (CIA) model, clinical severity score; type: in vivo; conditions: DBA/1 mice with CIA, 15 days; VPA 2×400 mg/kg/d i.p., G2M-707 2×1 mg/mouse/d i.p.; versus control group; FIG. 6 upper panel
Protocol: To evaluate this anti-inflammatory potency of HDAC inhibitors in a therapeutic in vivo inflammation model we applied VPA and G2M-707 to mice that had developed collagen induced arthritis (CIA).
Prednisolon, a corticosteroid drug in clinical use for RA, was used as a positive control in this study.
In detail, in this therapeutic CIA model, DBA/1 female mice of age 7 weeks were immunized with 100 μg of chicken type II collagen (Chondrex) in CFA. Development of arthritis started 21 to 28 days after immunization and reached an incidence of 93% after 6 weeks. The severity was medium to high and reached a mean score of 10.3 (maximum score 15) in untreated animals. The mice were monitored daily for signs of arthritis using an established scoring system. At the first sign of arthritis, the affected mice were assigned to a treatment group. The mice were treated for 15 days with vehicle control or VPA at 2×400 mg/kg/d i.p. or G2M-707 at 2×1 mg/mouse/d i.p. or Prednisolon at 2×20 mg/kg/d (i.p.). Clinical severity of arthritis was assessed based on the appearance of each paw and subjectively graded on a scale of 0 to 4. The scores of each limb were summed, giving a maximum severity score of 16. […] After onset of disease the animals were scored 3 times a week.

COX-2 RNA = experiment: Semi quantitative RT-PCR of COX-2 RNA in LPS-induced THP-1 cells; type: cell-based, human; conditions: THP-1 cells differentiated with TPA; 1 mM VPA or 10 μM G2M-707 over night, then 10 μg/ml LPS 6 h; FIG. 1A
Protocol: as §3

TNF-α = experiment: Acute LPS-induced inflammation model, serum TNF-α ELISA; type: in vivo; conditions: 3H1 mice; i.p. 1 h before LPS (50 μg per mouse); blood 1 h after LPS; VPA 400 mg/kg/d, G2M-707 1 mg/mouse/d; FIG. 6 lower panel
Protocol: To evaluate the ability of HDAC inhibitors to inhibit soluble TNF-α secretion in vivo, an acute LPS-induced inflammation model in 3H1 mice was used. The mice were injected i.p. with substances tested 1 h before the i.p. injection of LPS. Blood samples were drawn 1 h after LPS stimulus and the TNF-α levels in the serum were determined using a TNF-α ELISA assay. As shown in FIG. 6 (lower panel), VPA and G2M-707 pretreatment led to a 60% reduction in absolute TNF-α serum levels in comparison to the control mice.
In detail, mice were treated with VPA (400 mg/kg/d, n=8), G2M-701 (1 mg/mouse/d, n=4), G2M-707 (1 mg/mouse/d, n=4) or with 200 μl PBS (control, n=8) 1 h before inflammation was induced with 50 μg LPS (Sigma) per mouse. One hour after the LPS treatment, blood was taken by cardiac puncture and serum was isolated. The serum was tested in a TNF-α sandwich ELISA module from Bender MedSystems. The assay was performed as described in the manufacturer's manual. ABTS was used as a substrate and measuring was accomplished with a 96-well plate reader at a wavelength of 405 nm. Absolute OD levels at 405 nm are given.

Structure (SMILES) | Expression of Cox-2 on RNA and protein level (Cox-2 [1]) | prostaglandin levels, HDAC inhibitor added to Celecoxib (THP-1 monocytes) | prostaglandin levels in liver extracts (prostaglandin E2) | Cox-2 protein levels (Cox-2 [1]; MDA-MB-231 cells, VPA together with Celecoxib, FIG. 4) | number of adenomas [2] | TNF-α, IFN-γ and IL-6 RNA (TNF-α, IFN-γ and IL-6) | Cox-2 RNA in peripheral blood lymphocytes of patients (Cox-2 [3]) | repression of prostaglandin secretion by Celecoxib, HDAC inhibitor added [4] | clinical severity scores (sum score) [5] | COX-2 RNA (COX-2 RNA) | reduction in absolute TNF-α serum levels in comparison to the control mice (TNF-α) [%]
CC(/C=C/C(=O)NO)=C\[C@@H](C)C(=O)c1ccc(N(C)C)cc1 [TSA, Trichostatin A] | downregulated | reduce the prostaglandin levels further | – | – | – | – | – | – | – | – | –
CCCC(CCC)C(=O)O [VPA, 2-propyl-pentanoic acid] | downregulated | – | decrease | reduced | significantly reduces | downregulation | downregulation | dose dependently enhance | efficiently reduced | downregulation | 60
